Source: patent publication US20260285850A1, “SUBSTITUTED OXAZOLIDINONES AND IMIDAZOLINONES AS HERBICIDES” (FMC CORPORATION, priority 2023, published 2026)

Legend:
Type in all cases: in vivo
rice (Oryza sativa) = experiment: Test B flooded paddy test, visual plant response rating 0-100; conditions: 250 g ai/ha, Flood, applied to paddy water, evaluated after 13 days
In short: (§1)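 Paddy-water application: test compounds went directly into water flooded 3 cm above the soil surface, with plants at 2 leaves. After a 13-day greenhouse period, responses were judged by eye relative to controls; a dash marks an untested entry.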

[1] = system: ducksalad (Heteranthera limosa); experiment: as above; conditions: 250 g ai/ha, Flood, applied to paddy water, evaluated after 13 days
In short: as §1

[2] = system: barnyardgrass (Echinochloa crusgalli); experiment: as above; conditions: 250 g ai/ha, Flood, applied to paddy water, evaluated after 13 days
In short: as §1

[3] = system: sedge, umbrella (small-flower umbrella sedge, Cyperus difformis); experiment: as above; conditions: 250 g ai/ha, Flood, applied to paddy water, evaluated after 13 days
In short: as §1

soybean (Glycine max) [4] = experiment: Test A preemergence soil spray, visual injury rating 0-100; conditions: 10 days
In short: (§2)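 Plants were grown in a loam soil-sand blend and treated with test chemical in a non-phytotoxic solvent mixture containing surfactant, either sprayed on soil preemergence or applied postemergence to 2-10 cm plants. After 10 days in a greenhouse, injury was scored visually against untreated controls, 0 meaning no effect and 100 complete control.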

[5] = system: green foxtail (Setaria viridis); experiment: as above; conditions: 10 days
In short: as §2

[6] = system: oat, wild (wild oat, Avena fatua); experiment: as above; conditions: 10 days
In short: as §2

[7] = system: ragweed (common ragweed, Ambrosia artemisiifolia); experiment: as above; conditions: 10 days
In short: as §2

[8] = system: blackgrass (Alopecurus myosuroides); experiment: as above; conditions: 10 days
In short: as §2

kochia (Bassia scoparia) [9] = experiment: as above; conditions: 10 days
In short: as §2

[10] = system: ryegrass, Italian (italian ryegrass, Lolium multiflorum); experiment: as above; conditions: 10 days
In short: as §2

corn (Zea mays) [11] = experiment: as above; conditions: 10 days
In short: as §2

[12] = system: wheat (Triticum aestivum); experiment: as above; conditions: 10 days
In short: as §2

[13] = system: barnyardgrass (Echinochloa crus-galli); experiment: as above; conditions: 10 days
In short: as §2

soybean (Glycine max) [14] = experiment: Test A postemergence application, visual injury rating 0-100
In short: as §2

[15] = system: green foxtail (Setaria viridis); experiment: as above
In short: as §2

[16] = system: oat, wild (wild oat, Avena fatua); experiment: as above
In short: as §2

[17] = system: ragweed (common ragweed, Ambrosia artemisiifolia); experiment: as above
In short: as §2

[18] = system: galium (catchweed bedstraw, Galium aparine); experiment: as above
In short: as §2

[19] = system: horseweed (Erigeron canadensis); experiment: as above
In short: as §2

[20] = system: blackgrass (Alopecurus myosuroides); experiment: as above
In short: as §2

kochia (Bassia scoparia) [21] = experiment: as above
In short: as §2

[22] = system: palmer (palmer amaranth, palmer pigweed, Amaranthus palmeri); experiment: as above
In short: as §2

[23] = system: ryegrass, Italian (italian ryegrass, Lolium multiflorum); experiment: as above
In short: as §2

corn (Zea mays) [24] = experiment: as above
In short: as §2

[25] = system: wheat (Triticum aestivum); experiment: as above
In short: as §2

[26] = system: barnyardgrass (Echinochloa crus-galli); experiment: as above
In short: as §2

[27] = 62 g ai/ha, 0 = no effect, 100 = complete control
[28] = 62 g ai/ha, postemergence, 10 days, 0 = no effect, 100 = complete control
[29] = Postemergence, 16 g ai/ha, greenhouse 10 days, 0 no effect, 100 complete control

## CSCCOC(=O)C1=CCC(NC(=O)C2(C)CN(c3cc(F)cc(Cl)c3)C(=O)O2)C1 (centres unmarked) [Compound 135]
Rice (Oryza sativa)
  Plant response rating, Rice (0 to 100 scale, 0 is no effect and 100 is complete control): 65
[1]
  Plant response rating, Ducksalad (0 to 100 scale, 0 is no effect and 100 is complete control): 65
[2]
  Plant response rating, Barnyardgrass (0 to 100 scale, 0 is no effect and 100 is complete control): 90
[3]
  Plant response rating, Sedge, Umbrella (0 to 100 scale, 0 is no effect and 100 is complete control): 95
Soybean (Glycine max) [4]; 16 g ai/ha, 0 to 100 scale
  Soybean plant response rating: 20
Soybean (Glycine max) [4]; [27]
  Soybean plant response rating (0-100): 20
[5]; 16 g ai/ha, 0 to 100 scale
  Foxtail, Green plant response rating: 0
[5]; [27]
  Foxtail, Green plant response rating (0-100): 80
[6]; 16 g ai/ha, 0 to 100 scale
  Oat, Wild plant response rating: 20
[6]; [27]
  Oat, Wild plant response rating (0-100): 30
[7]; 16 g ai/ha, 0 to 100 scale
  Ragweed plant response rating: 0
[7]; [27]
  Ragweed plant response rating (0-100): 0
[8]; 16 g ai/ha, 0 to 100 scale
  Blackgrass plant response rating: 0
[8]; [27]
  Blackgrass plant response rating (0-100): 20
Kochia (Bassia scoparia) [9]; 16 g ai/ha, 0 to 100 scale
  Kochia plant response rating: 0
Kochia (Bassia scoparia) [9]; [27]
  Kochia plant response rating (0-100): 20
[10]; 16 g ai/ha, 0 to 100 scale
  Ryegrass, Italian plant response rating: 0
[10]; [27]
  Ryegrass, Italian plant response rating (0-100): 90
Corn (Zea mays) [11]; 16 g ai/ha, 0 to 100 scale
  Corn plant response rating: 0
Corn (Zea mays) [11]; [27]
  Corn plant response rating (0-100): 70
[12]; 16 g ai/ha, 0 to 100 scale
  Wheat plant response rating: 10
[12]; [27]
  Wheat plant response rating (0-100): 90
[13]; 16 g ai/ha, 0 to 100 scale
  Barnyardgrass plant response rating: 20
[13]; [27]
  Barnyardgrass plant response rating (0-100): 50
Soybean (Glycine max) [14]; [28]
  Soybean plant response rating (0-100): 80
Soybean (Glycine max) [14]; [29]
  Soybean plant response rating (0 to 100 scale): 60
[15]; [28]
  Foxtail, Green plant response rating (0-100): 90
[15]; [29]
  Foxtail, Green plant response rating (0 to 100 scale): 90
[16]; [28]
  Oat, Wild plant response rating (0-100): 90
[16]; [29]
  Oat, Wild plant response rating (0 to 100 scale): 30
[17]; [28]
  Ragweed plant response rating (0-100): 70
[17]; [29]
  Ragweed plant response rating (0 to 100 scale): 40
[18]; [28]
  Galium plant response rating (0-100): 80
[18]; [29]
  Galium plant response rating (0 to 100 scale): 70
[19]; [28]
  Horseweed plant response rating (0-100): 90
[19]; [29]
  Horseweed plant response rating (0 to 100 scale): 70
[20]; [28]
  Blackgrass plant response rating (0-100): 100
[20]; [29]
  Blackgrass plant response rating (0 to 100 scale): 90
Kochia (Bassia scoparia) [21]; [28]
  Kochia plant response rating (0-100): 90
Kochia (Bassia scoparia) [21]; [29]
  Kochia plant response rating (0 to 100 scale): 90
[22]; [28]
  Pigweed, Palmer plant response rating (0-100): 90
[22]; [29]
  Pigweed, Palmer plant response rating (0 to 100 scale): 70
[23]; [28]
  Ryegrass, Italian plant response rating (0-100): 90
[23]; [29]
  Ryegrass, Italian plant response rating (0 to 100 scale): 40
Corn (Zea mays) [24]; [28]
  Corn plant response rating (0-100): 100
Corn (Zea mays) [24]; [29]
  Corn plant response rating (0 to 100 scale): 100
[25]; [28]
  Wheat plant response rating (0-100): 90
[25]; [29]
  Wheat plant response rating (0 to 100 scale): 80
[26]; [28]
  Barnyardgrass plant response rating (0-100): 100
[26]; [29]
  Barnyardgrass plant response rating (0 to 100 scale): 100
